Laboratory results from patent US20070196395A1, “Immunomodulatory compounds that target and inhibit the py'binding site of tyrosene kinase p56 lck sh2 domain” (priority 2003, published 2007).

Molecular target: SH2 domain of p56 Lck (Homo sapiens, UniProt P06239)
Assay: Inhibition of binding of the CD3ζ ITAM2 peptide to the SH2 domain of p56 Lck (affinity precipitation from Jurkat cell lysate, immunoblot)
Details: 100 μM; decreased blot intensity vs control

Sequence of SH2 domain of p56 Lck (P06239 whole entry, the tested form may be a part): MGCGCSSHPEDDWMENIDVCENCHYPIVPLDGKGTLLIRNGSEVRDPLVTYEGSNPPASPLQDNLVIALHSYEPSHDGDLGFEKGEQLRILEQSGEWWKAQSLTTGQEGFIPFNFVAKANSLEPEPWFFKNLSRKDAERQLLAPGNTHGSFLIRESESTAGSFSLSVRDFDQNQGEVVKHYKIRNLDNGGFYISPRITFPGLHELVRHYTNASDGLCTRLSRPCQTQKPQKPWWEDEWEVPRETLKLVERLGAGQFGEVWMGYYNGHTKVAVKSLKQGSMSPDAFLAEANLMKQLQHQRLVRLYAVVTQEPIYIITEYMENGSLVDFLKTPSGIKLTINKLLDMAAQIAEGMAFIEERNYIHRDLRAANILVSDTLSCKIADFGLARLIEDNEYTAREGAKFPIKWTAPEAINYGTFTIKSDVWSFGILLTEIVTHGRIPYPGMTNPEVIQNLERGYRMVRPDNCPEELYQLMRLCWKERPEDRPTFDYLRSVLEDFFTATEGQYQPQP

inhibition of p56 Lck SH2 domain association with phosphotyrosine-containing ITAM2 peptide | Structure (SMILES)
significant inhibitory activities | O=C(O)CSc1cccnc1Sc1ccc(Cl)cc1 [Compound 262]
significant inhibitory activities | O=C(O)CC1S/C(=N\N=C2\CCCc3ccccc32)NC1=O (stereo not shown) [Compound 245]
significant inhibitory activities | O=C(O)CSc1nsc(SCC(=O)O)n1 [Compound 232]

Structure (SMILES) | inhibition of p56 Lck SH2 domain association with phosphotyrosine-containing ITAM2 peptide
Nc1nnc(SCc2ccc(C(=O)O)cc2)s1 [Compound 239] | significant inhibitory activities

Tested on: lymphocytes from two different strains of mice (B6 black and balb/c)
Assay: Mixed lymphocyte culture, 3H-thymidine uptake
Format: cell-based, mouse
Details: 100 μM to 1 μM; biphasic = inhibition at 100 μM, activation at 1 μM
Protocol: 100 mM solutions of compounds were prepared in DMSO.
Mixed lymphocyte culture assays were performed where lymphocytes from two different strains of mice with different histocompatibility antigens were mixed. Due to the difference in the histocompatibility antigens, resting T cells from both strains of mice will undergo blast transformation and propagate. As in any T cell activation process, the activation of Lck is essential. Therefore, the modulation of activation of Lck can be quantified as the downstream modulation in the levels of ^3H-TdR incorporation into DNA. 24 out of the 34 identified compounds were tested […], with 13 compounds showing inhibitory activity at a 100 μM concentration (FIG. 2). Thus, over 50% of the compounds identified by the in vitro assay also show activity in the cellular functional assay at the conditions described herein. These compounds represent the most promising leads for further development. […] Such effects may be associated with the regulatory mechanism of p56 Lck.
Another readout assay that is used to measure biological response is a mixed lymphocyte culture assay in which lymphocytes from two. different strains of mice with different histocompatibility antigens are mixed. Due to the difference in the histocompatibility antigens, resting T cells from both strains of mice undergo blast transformation and propagate. As in any T cell activation process, the activation of p56^lck is essential. Therefore, the modulation of p56^lck activity can be quantified as the downstream modulation in the levels of [^3H]-TdR incorporation into DNA.
Lymph node or splenic lymphocytes are harvested from two different allogeneic strains of mice. Cells (1×10^6) from each strain are mixed in 96 well culture plates containing 200 μl of culture medium in the presence or absence of the compound (0.1˜100 μM) and cultured for 72 h. Six hours before harvest, 0.5 μCi of [^3H]-TdR is added to each well. […] Filters are washed with PBS and then with ethanol and [^3H]-TdR incorporated into DNA is measured using scintillation counting. […]

Structure (SMILES) | activity profile in mixed lymphocyte culture assay across tested concentrations
Cc1ccc(NC(=O)c2cccc(NC(=O)c3ccccc3C(=O)O)c2)cc1C [Compound 99] | Biphasic
N=C1S/C(=C/c2ccc(-c3cccc(C(=O)O)c3)o2)C(=O)N1c1ccc(F)cc1 [Compound 73] | inhibition
COc1ccc(OC)c(NC(=O)CCNC(=O)Cn2cnc3ccccc3c2=O)c1 [Compound 139] | Biphasic
